Reference: patent US6506772B1, “Substituted [1,2,4]triazolo[1,5a]pyridine derivatives with activity as adenosine receptor ligands” (Hoffmann-La Roche Inc., priority 2000, dated 2003)
Read-outs that look alike come from different tables or passages of the source.

What was measured:
[1] = target: T1, human adenosine A2A receptor (Homo sapiens, UniProt P29274); assay: Human adenosine A2A receptor [3H]-SCH-58261 binding assay
T1 construct: expressed in transfected cells; host or cells: CHO cells, Semliki Forest virus expression system; membrane preparation

HA1 adenosine receptor = target: T2, HA1 adenosine receptor (Homo sapiens, UniProt P30542); assay: Human adenosine A1 receptor affinity (Ki hA1); format: binding
T2 sequence (P30542 1-326): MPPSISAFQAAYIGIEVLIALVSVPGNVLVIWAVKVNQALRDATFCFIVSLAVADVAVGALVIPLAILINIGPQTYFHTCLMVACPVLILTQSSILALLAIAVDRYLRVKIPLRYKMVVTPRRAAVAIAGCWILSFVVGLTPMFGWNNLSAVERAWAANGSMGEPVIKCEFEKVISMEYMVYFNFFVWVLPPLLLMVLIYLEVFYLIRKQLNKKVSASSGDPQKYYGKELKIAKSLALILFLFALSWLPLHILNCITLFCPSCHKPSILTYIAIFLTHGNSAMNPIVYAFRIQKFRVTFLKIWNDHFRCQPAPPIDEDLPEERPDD

[2] = affinity to human adenosine A2A receptor, read-out: Ki HA2A
[3] = calculated ratio of the affinity to the HA1 receptor to the HA2a receptor
[4] = affinity to human adenosine A1 receptor
[5] = recombinant human A2A in CHO cell membranes, [3H]-SCH-58261, Cheng-Prussoff, read-out: Ki hA2A

T1 sequence (P29274 whole entry): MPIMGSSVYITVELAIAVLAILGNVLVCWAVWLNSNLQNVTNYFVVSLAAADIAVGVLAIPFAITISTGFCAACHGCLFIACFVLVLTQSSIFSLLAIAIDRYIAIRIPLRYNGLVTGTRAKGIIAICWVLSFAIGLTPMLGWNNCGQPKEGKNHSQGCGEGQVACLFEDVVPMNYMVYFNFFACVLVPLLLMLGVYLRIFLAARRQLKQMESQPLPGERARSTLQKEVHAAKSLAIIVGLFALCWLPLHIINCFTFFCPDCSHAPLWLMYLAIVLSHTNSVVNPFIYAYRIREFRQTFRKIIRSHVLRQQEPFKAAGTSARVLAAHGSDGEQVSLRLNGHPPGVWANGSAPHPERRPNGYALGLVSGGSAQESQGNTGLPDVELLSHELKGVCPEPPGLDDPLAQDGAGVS

Row | Compound | Ki [1, 2] | selectivity (A1/A2a) [1, 3] | Ki (HA1 adenosine receptor; [4]) | selectivity (A1/A2a) ([1]; ratio KiHA1 divided by KiHA2A) | Ki [1, 5] | Ki (HA1 adenosine receptor)
1 | NC(=O)C1CCN(C(=O)c2cc(N)n3nc(-c4ccc(Br)o4)nc3c2)CC1 [Example 300, 1-[5-Amino-2-(5-bromo-furan-2-yl)-[1,2,4]triazolo[1,5-a]pyridine-7-carbonyl]-piperidine-4-carboxylic acid amide] | 74.7 nM | 5.2 | 385 nM | – | – | –
2 | Nc1cc(C(=O)NC2CCCCC2)cc2nc(-c3ccoc3)nn12 [Example 154, 5-Amino-2-furan-3-yl-[1,2,4]triazolo[1,5-a]pyridine-7-carboxylic acid cyclohexylamide] | 88.1 nM | 13.3 | 1180 nM | – | – | –
3 | Nc1cc(C(=O)N2CCCC3CCCCC32)cc2nc(-c3nccs3)nn12 (stereo not drawn) [Example 379, (5-Amino-2-thiazol-2-yl-[1,2,4]triazolo[1,5-a]pyridin-7-yl)-(octahydro-quinolin-1-yl)-methanone] | – | – | – | 17.2 | 33.5 nM | 577 nM
4 | Nc1cc(C(=O)NC2CCCCC2)cc2nc(-c3ccccc3)nn12 [Example 147, 5-Amino-2-phenyl-[1,2,4]triazolo[1,5-a]pyridine-7-carboxylic acid cyclohexylamide] | 140 nM | 3.2 | 453 nM | – | – | –
5 | Cc1ccc(-c2nc3cc(C(=O)NC4CCCCC4)cc(N)n3n2)s1 [Example 195, 5-Amino-2-(5-methyl-thiophen-2-yl)-[1,2,4]triazolo[1,5-a]pyridine-7-carboxylic acid cyclohexylamide] | 109 nM | 1.3 | 145 nM | – | – | –
6 | CCCCN(CC)C(=O)c1cc(N)n2nc(-c3ccccn3)nc2c1 [Example 421, 5-Amino-2-pyridin-2-yl-[1,2,4]triazolo[1,5-a]pyridine-7-carboxylic acid butyl-ethyl-amide] | – | – | – | 15.9 | 85.7 nM | 1360 nM
7 | CCCCNC(=O)c1cc(N)n2nc(-c3ccccc3O)nc2c1 [Example 158, 5-Amino-2-(2-hydroxy-phenyl)-[1,2,4]triazolo[1,5-a]pyridine-7-carboxylic acid butylamide] | 87.5 nM | 3.0 | 258 nM | – | – | –
8 | Nc1cc(C(=O)N2CC=CC2)cc2nc(-c3ccccn3)nn12 [Example 408, (5-Amino-2-pyridin-2-yl-[1,2,4]triazolo[1,5-a]pyridin-7-yl)-(2,5-dihydro-pyrrol-1-yl)-methanone] | – | – | – | 14.9 | 91.8 nM | 1370 nM
9 | CCN(CC)C(=O)c1cc(N)n2nc(-c3ccccc3)nc2c1 [Example 146, 5-Amino-2-phenyl-[1,2,4]triazolo[1,5-a]pyridine-7-carboxylic acid diethylamide] | 130 nM | 15.0 | 1960 nM | – | – | –
10 | COc1ccc(-c2nc3cc(C(=O)NCc4ccccc4)cc(N)n3n2)s1 [Example 62, 5-Amino-2-(5-methoxy-thiophen-2-yl)-[1,2,4]triazolo[1,5-a]pyridine-7-carboxylic acid benzylamide] | 176 nM | 0.6 | 113 nM | – | – | –
11 | CCCCNC(=O)c1cc(N)n2nc(-c3sccc3C)nc2c1 [Example 184, 5-Amino-2-(3-methyl-thiophen-2-yl)-[1,2,4]triazolo[1,5-a]pyridine-7-carboxylic acid butylamide] | 69.5 nM | 1.9 | 133 nM | – | – | –
12 | CC(NC(=O)c1cc(N)n2nc(-c3ccccc3)nc2c1)c1ccccc1 (stereo not drawn) [Example 217, 5-Amino-2-phenyl-[1,2,4]triazolo[1,5-a]pyridine-7-carboxylic acid (1-phenyl-ethyl)-amide] | 84.6 nM | 0.9 | 72.6 nM | – | – | –
13 | Nc1cc(C(=O)N2CCCCCC2)cc2nc(-c3ccccn3)nn12 [Example 417, (5-Amino-2-pyridin-2-yl-[1,2,4]triazolo[1,5-a]pyridin-7-yl)-azepan-1-yl-methanone] | – | – | – | 31.5 | 16.9 nM | 532 nM
14 | CCCCN(C)C(=O)c1cc(N)n2nc(-c3nccs3)nc2c1 [Example 287, 5-Amino-2-thiazol-2-yl-[1,2,4]triazolo[1,5-a]pyridine-7-carboxylic acid butyl-methyl-amide] | 142 nM | 15.4 | 2190 nM | – | – | –
15 | CCN(Cc1ccccc1)C(=O)c1cc(N)n2nc(-c3cccnc3)nc2c1 [Example 88, 5-Amino-2-pyridin-3-yl-[1,2,4]triazolo[1,5-a]pyridine-7-carboxylic acid benzyl-ethyl-amide] | 278 nM | 3.6 | 993 nM | – | – | –
16 | Cc1ccc(-c2nc3cc(C(=O)N4CCOCC4)cc(N)n3n2)s1 [Example 115, [5-Amino-2-(5-methyl-thiophen-2-yl)-[1,2,4]triazolo[1,5-a]pyridin-7-yl]-morpholin-4-yl-methanone] | 222 nM | 13.2 | 2920 nM | – | – | –

The remaining compounds from weak to strong by Ki [1, 2], led by results:

Row | Ki [1, 2] | selectivity (A1/A2a) [1, 3] | Ki (HA1 adenosine receptor; [4]) | selectivity (A1/A2a) ([1]; ratio KiHA1 divided by KiHA2A) | Ki [1, 5] | Ki (HA1 adenosine receptor) | Compound
17 | 64.9 nM | 2.8 | 180 nM | – | – | – | CCCNC(=O)c1cc(N)n2nc(-c3ccc(OC)s3)nc2c1 [Example 71, 5-Amino-2-(5-methoxy-thiophen-2-yl)-[1,2,4]triazolo[1,5-a]pyridine-7-carboxylic acid propylamide]
18 | 50.4 nM | 61.5 | 3100 nM | – | – | – | Nc1cc(C(=O)N2CCCC2)cc2nc(-c3nccs3)nn12 [Example 25, (5-Amino-2-thiazol-2-yl-[1,2,4]triazolo[1,5-a]pyridin-7-yl)-pyrrolidin-1-yl-methanone]
19 | 36.1 nM | 47.9 | 1730 nM | – | – | – | CC1CC(C)CN(C(=O)c2cc(N)n3nc(-c4nccs4)nc3c2)C1 (stereo not drawn) [Example 333, (5-Amino-2-thiazol-2-yl-[1,2,4]triazolo[1,5-a]pyridin-7-yl)-(3,5-dimethyl-piperidin-1-yl)-methanone]
20 | 31.7 nM | 39.1 | 1240 nM | – | – | – | CCNC(=O)c1cc(N)n2nc(-c3nccs3)nc2c1 [Example 328, 5-Amino-2-thiazol-2-yl-[1,2,4]triazolo[1,5-a]pyridine-7-carboxylic acid ethylamide]
21 | 29.7 nM | 0.8 | 24.7 nM | – | – | – | Nc1cc(C(=O)NCc2ccccc2)cc2nc(-c3cc(Br)co3)nn12 [Example 172, 5-Amino-2-(4-bromo-furan-2-yl)-[1,2,4]triazolo[1,5-a]pyridine-7-carboxylic acid benzylamide]
22 | 28 nM | 5.7 | 161 nM | – | – | – | CCCCNC(=O)c1cc(N)n2nc(-c3cccs3)nc2c1 [Example 161, 5-Amino-2-thiophen-2-yl-[1,2,4]triazolo[1,5-a]pyridine-7-carboxylic acid butylamide]
23 | 24 nM | 3.0 | 71.7 nM | – | – | – | COc1ccccc1CNC(=O)c1cc(N)n2nc(-c3ccc(Cl)o3)nc2c1 [Example 246, 5-Amino-2-(5-chloro-furan-2-yl)-[1,2,4]triazolo[1,5-a]pyridine-7-carboxylic acid 2-methoxy-benzylamide]
24 | 17.2 nM | 17.8 | 307 nM | – | – | – | Cc1ccc(-c2nc3cc(C(=O)N(C)C4CCCCC4)cc(N)n3n2)s1 [Example 113, 5-Amino-2-(5-methyl-thiophen-2-yl)-[1,2,4]triazolo[1,5-a]pyridine-7-carboxylic acid cyclohexyl-methyl-amide]
25 | 13.1 nM | 15.2 | 199 nM | – | – | – | CCCCN(Cc1ccccc1)C(=O)c1cc(N)n2nc(-c3ccccn3)nc2c1 [Example 36, 5-Amino-2-pyridin-2-yl-[1,2,4]triazolo[1,5-a]pyridine-7-carboxylic acid benzyl-butyl-amide]
26 | 9.3 nM | 41.0 | 382 nM | – | – | – | CC1CN(C(=O)c2cc(N)n3nc(-c4ccc(Br)o4)nc3c2)CC(C)O1 (stereo not drawn) [Example 304, [5-Amino-2-(5-bromo-furan-2-yl)-[1,2,4]triazolo[1,5-a]pyridin-7-yl]-(2,6-dimethyl-morpholin-4-yl)-methanone]
27 | 9.2 nM | 17.6 | 161 nM | – | – | – | CN(CC1CC1)C(=O)c1cc(N)n2nc(-c3ccc(Cl)o3)nc2c1 [Example 247, 5-Amino-2-(5-chloro-furan-2-yl)-[1,2,4]triazolo[1,5-a]pyridine-7-carboxylic acid cyclopropylmethyl-methyl-amide]
28 | 8.9 nM | 27.8 | 247 nM | – | – | – | CCN(C(=O)c1cc(N)n2nc(-c3ccc(C)s3)nc2c1)C1CCCCC1 [Example 24, 5-Amino-2-(5-methyl-thiophen-2-yl)-[1,2,4]triazolo[1,5-a]pyridine-7-carboxylic acid cyclohexyl-ethyl-amide]
29 | 2.4 nM | 42.7 | 102 nM | – | – | – | CC(C)CN(CC(C)C)C(=O)c1cc(N)n2nc(-c3ccc(Br)o3)nc2c1 [Example 346, 5-Amino-2-(5-bromo-furan-2-yl)-[1,2,4]triazolo[1,5-a]pyridine-7-carboxylic acid diisobutylamide]
30 | 2.3 nM | 13.0 | 30.1 nM | – | – | – | CC(C)N(Cc1ccccc1)C(=O)c1cc(N)n2nc(-c3ccc(Br)o3)nc2c1 [Example 26, 5-Amino-2-(5-bromo-furan-2-yl)-[1,2,4]triazolo[1,5-a]pyridine-7-carboxylic acid benzyl-isopropyl-amide]
